Here are results for one molecule from publication PMC4508061, “Selectivity Profiling and Biological Activity of Novel β-Carbolines as Potent and Selective DYRK1 Kinase Inhibitors” (PLoS ONE, 2015).

Among the targets are ARK5 (Homo sapiens, UniProt O60285); MAP3K7 (Homo sapiens, UniProt O43318); HIPK1 (Homo sapiens, UniProt Q86Z02).
Assay in all cases: ProQinase radiometric kinase panel
Conditions in all cases: mean of 2 exp.

Molecules are shown by their SMILES.

HIPK1, sequence (Q86Z02 whole entry): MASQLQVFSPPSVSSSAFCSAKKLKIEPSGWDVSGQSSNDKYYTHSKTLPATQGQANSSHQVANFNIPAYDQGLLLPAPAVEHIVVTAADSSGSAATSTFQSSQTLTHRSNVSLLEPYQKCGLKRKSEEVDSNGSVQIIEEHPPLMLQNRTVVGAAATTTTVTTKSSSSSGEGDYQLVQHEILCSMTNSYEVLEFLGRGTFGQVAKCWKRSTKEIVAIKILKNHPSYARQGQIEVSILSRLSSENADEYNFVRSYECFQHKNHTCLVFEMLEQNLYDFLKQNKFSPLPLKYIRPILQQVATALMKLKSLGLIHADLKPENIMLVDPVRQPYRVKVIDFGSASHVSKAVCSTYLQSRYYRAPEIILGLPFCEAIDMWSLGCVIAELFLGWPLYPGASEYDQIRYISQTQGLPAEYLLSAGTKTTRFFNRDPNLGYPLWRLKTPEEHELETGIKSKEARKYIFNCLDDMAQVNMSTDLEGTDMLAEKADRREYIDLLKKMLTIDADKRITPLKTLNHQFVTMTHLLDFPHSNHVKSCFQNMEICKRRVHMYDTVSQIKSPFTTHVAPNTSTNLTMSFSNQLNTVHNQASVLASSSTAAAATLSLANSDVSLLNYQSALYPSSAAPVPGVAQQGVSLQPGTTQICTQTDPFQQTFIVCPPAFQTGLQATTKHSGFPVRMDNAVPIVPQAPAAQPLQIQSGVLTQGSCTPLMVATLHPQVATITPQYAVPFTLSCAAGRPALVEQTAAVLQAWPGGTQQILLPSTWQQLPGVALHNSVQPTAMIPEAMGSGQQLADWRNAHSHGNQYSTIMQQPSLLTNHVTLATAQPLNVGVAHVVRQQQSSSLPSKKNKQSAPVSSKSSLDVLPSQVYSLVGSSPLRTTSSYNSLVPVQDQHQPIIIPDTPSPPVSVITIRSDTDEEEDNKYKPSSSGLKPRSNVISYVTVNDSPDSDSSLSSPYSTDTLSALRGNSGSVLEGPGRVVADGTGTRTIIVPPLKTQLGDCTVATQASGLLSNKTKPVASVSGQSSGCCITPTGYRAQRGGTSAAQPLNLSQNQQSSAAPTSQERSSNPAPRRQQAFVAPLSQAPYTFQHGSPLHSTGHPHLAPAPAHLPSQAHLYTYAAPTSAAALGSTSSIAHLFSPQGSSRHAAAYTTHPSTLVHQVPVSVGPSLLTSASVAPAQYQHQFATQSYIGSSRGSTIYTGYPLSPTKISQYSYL
ARK5, sequence (O60285 whole entry): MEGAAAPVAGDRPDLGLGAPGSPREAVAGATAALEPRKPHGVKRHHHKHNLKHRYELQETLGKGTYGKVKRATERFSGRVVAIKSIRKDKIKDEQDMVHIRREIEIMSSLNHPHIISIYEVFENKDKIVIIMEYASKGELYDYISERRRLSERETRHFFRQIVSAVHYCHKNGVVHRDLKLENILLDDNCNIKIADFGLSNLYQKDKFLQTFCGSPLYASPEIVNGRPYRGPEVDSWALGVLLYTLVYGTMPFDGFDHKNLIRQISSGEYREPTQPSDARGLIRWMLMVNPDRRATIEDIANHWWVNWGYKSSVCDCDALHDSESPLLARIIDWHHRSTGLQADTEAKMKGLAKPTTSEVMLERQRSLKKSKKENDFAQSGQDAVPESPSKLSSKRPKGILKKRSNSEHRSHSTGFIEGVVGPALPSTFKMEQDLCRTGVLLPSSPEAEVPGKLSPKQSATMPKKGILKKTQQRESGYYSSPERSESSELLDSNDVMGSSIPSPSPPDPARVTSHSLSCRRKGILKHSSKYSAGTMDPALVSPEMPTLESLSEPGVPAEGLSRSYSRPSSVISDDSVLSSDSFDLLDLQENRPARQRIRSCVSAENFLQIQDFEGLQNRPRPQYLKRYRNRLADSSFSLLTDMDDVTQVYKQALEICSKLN
MAP3K7, sequence (O43318 1-303 limits assumed): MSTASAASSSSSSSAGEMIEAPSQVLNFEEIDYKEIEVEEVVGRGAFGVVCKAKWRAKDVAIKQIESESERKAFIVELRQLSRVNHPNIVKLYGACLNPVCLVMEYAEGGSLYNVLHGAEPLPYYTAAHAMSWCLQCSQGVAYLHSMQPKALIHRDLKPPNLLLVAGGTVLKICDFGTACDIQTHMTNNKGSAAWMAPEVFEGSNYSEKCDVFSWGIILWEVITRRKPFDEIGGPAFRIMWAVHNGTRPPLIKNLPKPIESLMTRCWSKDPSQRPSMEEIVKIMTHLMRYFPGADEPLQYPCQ

Regarding `COc1ccc2c3ccnc(Cl)c3n(CC#N)c2c1` [AnnH75], the “residual activity at 1 µM, Mean” value at ARK5 is recorded as 94 % of control; at MAP3K7, 91 % of control; on HIPK1, 91 % of control.
